{"source": "patent US10905117B2", "about": "“Antimicrobial agent containing polyalkyleneimine derivative” (NIPPON SHOKUBAI CO., LTD, priority 2014, dated 2021)", "format_in_all_cases": "cell-based", "key": {"[1]": {"test_system": "Escherichia coli (NBRC-3972)", "experiment": "Minimum growth inhibitory concentration (MIC)", "details": "0.1% by weight agent with 1% by weight NaOH, pH 12.5, stored 18 days at 55° C.", "protocol": "(§1) An aqueous solution containing the antimicrobial agent was serially diluted by two fold with a Mueller-Hinton medium to prepare dilution series of a medium containing the antimicrobial agent. After that, the medium containing the antimicrobial agent at each concentration was added, in an amount of 50 μl each, to a 96 well polystyrene plate. […] The prepared liquid containing microbial cells was diluted to 10×10^6 cells/mL or so in a Mueller-Hinton medium, and added in an amount of 50 μl to each of the dilution series prepared in the above. […] Presence or absence of the growth of the bacterial cells was determined with a naked eye by following an increase in turbidity. To an aqueous solution added with the polymer 1 which has been obtained in Preparation Example 1 and benzalkonium chloride at 0.1% by weight, various kinds of alkali modifying agent shown in Table 8 were mixed at 1% by weight to prepare an antimicrobial agent composition. The storage stability test was carried out for the antimicrobial agent compositions for 18 days at 55° C. […] Meanwhile, MIC values were described as concentration of the antimicrobial agent."}, "[2]": {"test_system": "Staphylococcus aureus (NBRC-12732)", "experiment": "Minimum growth inhibitory concentration (MIC)", "details": "0.1% by weight agent with 1% by weight NaOH, pH 12.5, stored 18 days at 55° C.", "protocol": "as §1"}, "[3]": {"test_system": "Escherichia coli (NBRC-3972) and/or Staphylococcus aureus (NBRC-12732)", "experiment": "MIC in the presence of an anionic surfactant", "details": "in the presence of linear alkylbenzene sulfate 80 ppm and polyoxyalkylenealkyl ether sulfate 80 ppm", "protocol": "An aqueous solution containing the antimicrobial agent was serially diluted by two fold with a Mueller-Hinton medium to prepare dilution series of a medium containing the antimicrobial agent. After that, the medium containing the antimicrobial agent at each concentration was added, in an amount of 50 μl each, to a 96 well polystyrene plate. Next, colonies of Escherichia coli (NBRC-3972) and/or Staphylococcus aureus (NBRC-12732) which have been grown for 18 hours in a Mueller-Hinton agar medium were suspended in a Butterfield's buffer solution to prepare a liquid containing microbial cells of 10×10^8 cells/mL or so. The prepared liquid containing microbial cells was diluted to 10×10^6 cells/mL or so in a Mueller-Hinton medium, and added in an amount of 50 μl to each of the dilution series prepared in the above. […] Presence or absence of the growth of the bacterial cells was determined with a naked eye by following an increase in turbidity.\nAs for the anionic surfactant, linear alkylbenzene sulfate was used at 80 ppm and polyoxyalkylenealkyl ether sulfate was used at 80 ppm."}}}
{"substance": "Benzalkonium chloride", "values": [{"measurement": "MIC Escherichia coli after storage stability test", "setting": "[1]", "value": 250, "unit": "ppm"}, {"measurement": "MIC Staphylococcus aureus after storage stability test", "setting": "[2]", "value": 250, "unit": "ppm"}, {"measurement": "MIC", "setting": "[3]", "value": 625, "unit": "ppm"}]}
